# Data from ChEMBL document CHEMBL3885881, “DrugMatrix”.
# Species on record: Rattus norvegicus
# Assay: DrugMatrix - Regimen: Daily Repeat
# Type: toxicity, organism-based, Sprague-Dawley
# Set-up: regimen Daily Repeat, gender Male, age 6-8 weeks
# Conditions: in vivo, po, route oral GAVAGE; for ALANINE AMINOTRANSFERASE / ALBUMIN / ALKALINE PHOSPHATASE / ASPARTATE AMINOTRANSFERASE / BLOOD UREA NITROGEN / CARBON DIOXIDE / CHLORIDE / CHOLESTEROL / CREATININE / GLUCOSE / LIPASE / PHOSPHORUS / POTASSIUM / SODIUM / TOTAL BILIRUBIN / CREATINE PHOSPHOKINASE / LACTATE DEHYDROGENASE / TOTAL PROTEIN / URIC ACID: tissue Plasma; for ABSOLUTE BASOPHIL / ABSOLUTE EOSINOPHIL / ABSOLUTE LYMPHOCYTE / ABSOLUTE MONOCYTE / ABSOLUTE SEGMENTED NEUTROPHIL / BASOPHIL / EOSINOPHIL / ERYTHROCYTE COUNT / HEMATOCRIT / HEMOGLOBIN / LEUKOCYTE COUNT / LYMPHOCYTE / MEAN CORPUSCULAR HEMOGLOBIN / MEAN CORPUSCULAR HEMOGLOBIN CONCENTRATION / MEAN CORPUSCULAR VOLUME / MONOCYTE / NEUTROPHIL / NUCLEATED RED BLOOD CELLS / PLATELET COUNT: tissue Blood
# [1] = 7 mg/kg, 96 h, dose level M1, time 4 day, […]
# [2] = 12 mg/kg, 72 h, dose level High, time 3 day, vehicle 100 % WATER
# [3] = 12 mg/kg, 120 h, dose level High, time 5 day, vehicle 100 % WATER
# [4] = […], 72 h, dose 9.6 mg/Kg, dose level M1, time 3 day, vehicle 100 % WATER
# [5] = […], 120 h, dose 9.6 mg/Kg, dose level M1, time 5 day, vehicle 100 % WATER
compound,measurement,setting,value
COc1ccc2c(c1)c(CC(=O)O)c(C)n2C(=O)c1ccc(Cl)cc1 [INDOMETHACIN],ALANINE AMINOTRANSFERASE,[1],65.33 u/L
same,ALBUMIN,[1],2.67 G/DL
same,ALKALINE PHOSPHATASE,[1],487 u/L
same,ASPARTATE AMINOTRANSFERASE,[1],260 u/L
same,BLOOD UREA NITROGEN,[1],49.33 mg/dL
same,CARBON DIOXIDE,[1],24.3 mmol/L
same,CHLORIDE,[1],100 MEQ/L
same,CHOLESTEROL,[1],61.33 mg/dL
same,CREATININE,[1],0.3 mg/dL
same,GLUCOSE,[1],83 mg/dL
same,LIPASE,[1],296.67 u/L
same,PHOSPHORUS,[1],8.35 mg/dL
same,POTASSIUM,[1],5.5 MEQ/L
same,SODIUM,[1],138 MEQ/L
same,TOTAL BILIRUBIN,[1],0.09 mg/dL
same,ABSOLUTE BASOPHIL,[2],0 CELLS/uL
same,ABSOLUTE EOSINOPHIL,[2],64 CELLS/uL
same,ABSOLUTE LYMPHOCYTE,[2],7403 CELLS/uL
same,ABSOLUTE MONOCYTE,[2],98 CELLS/uL
same,ABSOLUTE SEGMENTED NEUTROPHIL,[2],468.33 CELLS/uL
same,BASOPHIL,[2],0%
same,EOSINOPHIL,[2],0.67%
same,ERYTHROCYTE COUNT,[2],2.59 x10E6/uL
same,HEMATOCRIT,[2],16.8%
same,HEMOGLOBIN,[2],6.83 G/DL
same,LEUKOCYTE COUNT,[2],8.03 x10E3/uL
same,LYMPHOCYTE,[2],93.33%
same,MEAN CORPUSCULAR HEMOGLOBIN,[2],26.43 pg
same,MEAN CORPUSCULAR HEMOGLOBIN CONCENTRATION,[2],40.53 G/DL
same,MEAN CORPUSCULAR VOLUME,[2],65.07 fL
same,MONOCYTE,[2],1%
same,NEUTROPHIL,[2],5%
same,NUCLEATED RED BLOOD CELLS,[2],2.67 /100WBC
same,PLATELET COUNT,[2],714.67 x10E3/uL
same,ALANINE AMINOTRANSFERASE,[2],21 u/L
same,ALBUMIN,[2],1.93 G/DL
same,ALKALINE PHOSPHATASE,[2],177.67 u/L
same,ASPARTATE AMINOTRANSFERASE,[2],46.33 u/L
same,BLOOD UREA NITROGEN,[2],15.33 mg/dL
same,CARBON DIOXIDE,[2],27 mmol/L
same,CHLORIDE,[2],104.33 MEQ/L
same,CHOLESTEROL,[2],69.67 mg/dL
same,CREATINE PHOSPHOKINASE,[2],148.33 u/L
same,CREATININE,[2],0.1 mg/dL
same,GLUCOSE,[2],146.67 mg/dL
same,LACTATE DEHYDROGENASE,[2],36 u/L
same,LIPASE,[2],8.33 u/L
same,PHOSPHORUS,[2],11 mg/dL
same,POTASSIUM,[2],4.8 MEQ/L
same,SODIUM,[2],143.4 MEQ/L
same,TOTAL BILIRUBIN,[2],0.1 mg/dL
same,TOTAL PROTEIN,[2],4.5 G/DL
same,URIC ACID,[2],0.53 mg/dL
same,ABSOLUTE BASOPHIL,[3],0 CELLS/uL
same,ABSOLUTE EOSINOPHIL,[3],18.5 CELLS/uL
same,ABSOLUTE LYMPHOCYTE,[3],2977 CELLS/uL
same,ABSOLUTE MONOCYTE,[3],109 CELLS/uL
same,ABSOLUTE SEGMENTED NEUTROPHIL,[3],495.5 CELLS/uL
same,BASOPHIL,[3],0%
same,EOSINOPHIL,[3],0.5%
same,ERYTHROCYTE COUNT,[3],3.63 x10E6/uL
same,HEMATOCRIT,[3],21.7%
same,HEMOGLOBIN,[3],9.1 G/DL
same,LEUKOCYTE COUNT,[3],3.6 x10E3/uL
same,LYMPHOCYTE,[3],83%
same,MEAN CORPUSCULAR HEMOGLOBIN,[3],25 pg
same,MEAN CORPUSCULAR HEMOGLOBIN CONCENTRATION,[3],41.8 G/DL
same,MEAN CORPUSCULAR VOLUME,[3],59.9 fL
same,MONOCYTE,[3],3%
same,NEUTROPHIL,[3],13.5%
same,NUCLEATED RED BLOOD CELLS,[3],1.5 /100WBC
same,PLATELET COUNT,[3],1098.5 x10E3/uL
same,ALANINE AMINOTRANSFERASE,[3],17 u/L
same,ALBUMIN,[3],2.1 G/DL
same,ALKALINE PHOSPHATASE,[3],366 u/L
same,ASPARTATE AMINOTRANSFERASE,[3],84 u/L
same,BLOOD UREA NITROGEN,[3],37 mg/dL
same,CARBON DIOXIDE,[3],26 mmol/L
same,CHLORIDE,[3],108 MEQ/L
same,CHOLESTEROL,[3],66 mg/dL
same,CREATINE PHOSPHOKINASE,[3],224 u/L
same,CREATININE,[3],0.1 mg/dL
same,GLUCOSE,[3],132.5 mg/dL
same,LACTATE DEHYDROGENASE,[3],83.5 u/L
same,LIPASE,[3],12.5 u/L
same,PHOSPHORUS,[3],11.15 mg/dL
same,POTASSIUM,[3],5.62 MEQ/L
same,SODIUM,[3],146.9 MEQ/L
same,TOTAL BILIRUBIN,[3],0.15 mg/dL
same,TOTAL PROTEIN,[3],4.7 G/DL
same,URIC ACID,[3],0.45 mg/dL
same,ABSOLUTE BASOPHIL,[4],0 CELLS/uL
same,ABSOLUTE EOSINOPHIL,[4],39.33 CELLS/uL
same,ABSOLUTE LYMPHOCYTE,[4],13009.33 CELLS/uL
same,ABSOLUTE MONOCYTE,[4],145.33 CELLS/uL
same,ABSOLUTE SEGMENTED NEUTROPHIL,[4],3406 CELLS/uL
same,BASOPHIL,[4],0%
same,EOSINOPHIL,[4],0.33%
same,ERYTHROCYTE COUNT,[4],4.19 x10E6/uL
same,HEMATOCRIT,[4],26.67%
same,HEMOGLOBIN,[4],10.63 G/DL
same,LEUKOCYTE COUNT,[4],16.6 x10E3/uL
same,LYMPHOCYTE,[4],78.33%
same,MEAN CORPUSCULAR HEMOGLOBIN,[4],25.53 pg
same,MEAN CORPUSCULAR HEMOGLOBIN CONCENTRATION,[4],40 G/DL
same,MEAN CORPUSCULAR VOLUME,[4],63.8 fL
same,MONOCYTE,[4],1%
same,NEUTROPHIL,[4],20.33%
same,NUCLEATED RED BLOOD CELLS,[4],0 /100WBC
same,PLATELET COUNT,[4],984.67 x10E3/uL
same,ALANINE AMINOTRANSFERASE,[4],50.33 u/L
same,ALBUMIN,[4],3.17 G/DL
same,ALKALINE PHOSPHATASE,[4],197.33 u/L
same,ASPARTATE AMINOTRANSFERASE,[4],77.33 u/L
same,BLOOD UREA NITROGEN,[4],13.33 mg/dL
same,CARBON DIOXIDE,[4],26 mmol/L
same,CHLORIDE,[4],102.67 MEQ/L
same,CHOLESTEROL,[4],72.33 mg/dL
same,CREATINE PHOSPHOKINASE,[4],564.67 u/L
same,CREATININE,[4],0.3 mg/dL
same,GLUCOSE,[4],162.33 mg/dL
same,LACTATE DEHYDROGENASE,[4],111.33 u/L
same,LIPASE,[4],11.67 u/L
same,PHOSPHORUS,[4],10.83 mg/dL
same,POTASSIUM,[4],5.33 MEQ/L
same,SODIUM,[4],141.3 MEQ/L
same,TOTAL BILIRUBIN,[4],0.1 mg/dL
same,TOTAL PROTEIN,[4],5.07 G/DL
same,URIC ACID,[4],1.23 mg/dL
same,ABSOLUTE BASOPHIL,[5],0 CELLS/uL
same,ABSOLUTE EOSINOPHIL,[5],0 CELLS/uL
same,ABSOLUTE LYMPHOCYTE,[5],4773 CELLS/uL
same,ABSOLUTE MONOCYTE,[5],34 CELLS/uL
same,ABSOLUTE SEGMENTED NEUTROPHIL,[5],943 CELLS/uL
same,BASOPHIL,[5],0%
same,EOSINOPHIL,[5],0%
same,ERYTHROCYTE COUNT,[5],4.33 x10E6/uL
same,HEMATOCRIT,[5],26.75%
same,HEMOGLOBIN,[5],10.7 G/DL
same,LEUKOCYTE COUNT,[5],5.75 x10E3/uL
same,LYMPHOCYTE,[5],81%
same,MEAN CORPUSCULAR HEMOGLOBIN,[5],24.7 pg
same,MEAN CORPUSCULAR HEMOGLOBIN CONCENTRATION,[5],40 G/DL
same,MEAN CORPUSCULAR VOLUME,[5],61.75 fL
same,MONOCYTE,[5],0.5%
same,NEUTROPHIL,[5],18.5%
same,NUCLEATED RED BLOOD CELLS,[5],1 /100WBC
same,PLATELET COUNT,[5],1266.5 x10E3/uL
same,ALANINE AMINOTRANSFERASE,[5],53.5 u/L
same,ALBUMIN,[5],3 G/DL
same,ALKALINE PHOSPHATASE,[5],320 u/L
same,ASPARTATE AMINOTRANSFERASE,[5],129 u/L
same,BLOOD UREA NITROGEN,[5],45 mg/dL
same,CARBON DIOXIDE,[5],33 mmol/L
same,CHLORIDE,[5],92.5 MEQ/L
same,CHOLESTEROL,[5],60.5 mg/dL
same,CREATINE PHOSPHOKINASE,[5],215 u/L
same,CREATININE,[5],0.32 mg/dL
same,GLUCOSE,[5],131 mg/dL
same,LACTATE DEHYDROGENASE,[5],112.5 u/L
same,LIPASE,[5],24.5 u/L
same,PHOSPHORUS,[5],11.45 mg/dL
same,POTASSIUM,[5],5.66 MEQ/L
same,SODIUM,[5],139.9 MEQ/L
same,TOTAL BILIRUBIN,[5],0.15 mg/dL
same,TOTAL PROTEIN,[5],5.8 G/DL
same,URIC ACID,[5],1.05 mg/dL
